From patent publication US8642297B2, “Production of L-ribose and other rare sugars” (ZuChem, Inc., priority 2005, dated 2014)

Experiments:
Native MDH = biological target: T1, Native MDH (Apium graveolens, UniProt Q38707); details: cited from earlier work; for Relative reaction rate, Native MDH: relative to D-mannitol = 100%, natively expressed MDH
T1 construct: compared with the published data on the natively expressed MDH; host or cells: celery (Apium graveolens)
T1 sequence (Q38707 1-365): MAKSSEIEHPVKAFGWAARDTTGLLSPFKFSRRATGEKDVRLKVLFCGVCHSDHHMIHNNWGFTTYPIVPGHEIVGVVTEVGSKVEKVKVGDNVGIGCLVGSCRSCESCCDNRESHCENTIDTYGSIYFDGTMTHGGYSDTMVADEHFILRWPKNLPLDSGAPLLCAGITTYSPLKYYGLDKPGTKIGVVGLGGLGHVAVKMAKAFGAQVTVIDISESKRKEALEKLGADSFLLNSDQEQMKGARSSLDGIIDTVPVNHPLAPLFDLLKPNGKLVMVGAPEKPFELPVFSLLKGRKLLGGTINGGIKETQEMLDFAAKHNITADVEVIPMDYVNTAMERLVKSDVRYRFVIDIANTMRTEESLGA

Recombinant MDH = biological target: T2, Recombinant MDH (Apium graveolens, UniProt Q38707, C47S/T120I); experiment: Relative reaction rates of substrates with recombinantly expressed MDH (NADH formation measured spectrophotometrically); type: biochemical; details: relative to D-mannitol = 100%; MDH expressed in E. coli
T2 construct: made in house; host or cells: E. coli BL21 (pTTQ18 plasmid, tac promoter)
T2 sequence (Q38707 whole entry C47S/T120I): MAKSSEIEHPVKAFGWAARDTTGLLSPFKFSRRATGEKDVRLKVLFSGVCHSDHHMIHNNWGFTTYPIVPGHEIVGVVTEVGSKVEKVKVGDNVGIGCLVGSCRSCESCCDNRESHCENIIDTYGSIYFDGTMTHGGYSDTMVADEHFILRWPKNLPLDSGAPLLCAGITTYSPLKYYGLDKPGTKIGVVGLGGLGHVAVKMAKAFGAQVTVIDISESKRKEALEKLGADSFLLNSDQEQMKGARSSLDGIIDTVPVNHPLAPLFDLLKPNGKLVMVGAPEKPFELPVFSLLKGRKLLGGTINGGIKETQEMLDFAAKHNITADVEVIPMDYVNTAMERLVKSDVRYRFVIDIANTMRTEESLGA
Procedure: (§1) Many different variables were studied to maximize the expression and activity of MDH. MDH activity was monitored with the conversion of D-mannitol to D-mannose in the presence of NAD. The conversion was monitored spectrophotometrically by measuring the increasing concentration of NADH, the cofactor product of the oxidation of mannitol to mannose. For a given experiment, lysate protein concentrations were normalized.
Substrate specificity of the recombinant MDH was also tested and compared with the published data on the natively expressed MDH. Recombinant expression of MDH in E. coli could cause subtle modifications to the tertiary structure of MDH and modify the substrate specificity. Several known substrates of the MDH were tested.[16]
The reaction rate of L-fucitol for recombinant MDH was tested. […] The fucitol was not originally characterized in the previous literature on MDH.[38]

[1] = biological target: T3, Apium gravelons mannitol-1-dehydrogenase (MDH) (Apium graveolens, UniProt Q38707, C47S/T120I); experiment: MDH activity in lysate with added divalent metal salts, D-mannitol and NAD at pH 9.0; type: biochemical
T3 construct: made in house; host or cells: E. coli BL21 (pTTQ18 plasmid, tac promoter)
T3 sequence (Q38707 whole entry C47S/T120I): as above
Procedure: While not explicitly described in the literature, Apium gravelons mannitol-1-dehydrogenase (MDH) requires divalent metal ions, particularly Zn^2+ ions, for activity. The presence of ZnSO4 increases MDH activity. Cells expressing MDH were grown in rich media were harvested and lysed with BUGBUSTER® protein extraction reagent, Novagen, Madison, Wis. MDH activity was then tested with increasing concentrations of ZnSO4 in the presence of D-mannitol and NAD cofactor at pH 9.0. See, FIG. 1.

[2] = type: biochemical, Apium graveolens
Procedure: as §1
The pH profile for MDH for the oxidation reactions was also tested. […] This range could be beneficial for in vitro bioconversions with enzymatic NAD cofactor recycling methods. Increasing the activity of MDH at neutral pH could improve in vivo fermentation activity as the interior of the E. coli cell has a pH lower than 9.0.[21]
The recombinant MDH was tested for activity at various temperatures. Lysates containing expressed MDH were incubated with D-mannitol and NAD at pH 9.0. Activity was measured by measuring the increased NADH concentration spectrophotometrically at A340nm. […] See, FIG. 12.
The thermostability of recombinant MDH was also tested. Lysates containing MDH were incubated at various temperatures. Aliquots of MDH were removed at various times to measure MDH activity using the assay described above. See, FIG. 13.

| Compound | Relative reaction rate, Native MDH (Native MDH) [%] | Relative reaction rate, Recombinant MDH (Recombinant MDH) [%] | other results |
| --- | --- | --- | --- |
| OC[C@@H](O)[C@@H](O)CO [Erythritol] | 16 | 4 |  |
| O=S(=O)([O-])[O-].[Zn+2] [Zn^2+, ZnSO4] |  |  | Increase of MDH activity ([1]; 1 μM Zn^2+ ions compared to no added zinc): 50%; Effect on MDH activity at concentrations above 1 μM ([1]; concentrations above 1 μM): inhibition |
| OC[C@@H](O)C(O)[C@H](O)CO [D-Arabitol] | 37 | 33 |  |
| C[C@H](O)[C@@H](O)[C@@H](O)[C@H](O)CO [L-fucitol] |  | 10.5 |  |
| OC[C@@H](O)[C@@H](O)[C@@H](O)CO [Ribitol] | 36 | 50 |  |
| O=S(=O)([O-])[O-].[Ni+2] [NiSO4] |  |  | Inhibition of MDH activity ([1]; 0.1 mM NiSO4 compared to MDH without NiSO4 added): approximately 50% |
| OC[C@@H](O)[C@H](O)[C@@H](O)CO [Xylitol] | 0 | 1 | Conversion of xylitol to L-xylose by wild-type MDH (Native MDH; wild-type MDH): does not convert |
| MDH: NAD-dependent mannitol-1-dehydrogenase from Apium graveolens, recombinantly expressed in E. coli |  |  | Thermostability (loss of activity on incubation) [2]: Most MDH activity was lost; Residual activity at pH 7.0 ([2]; pH 7.0, relative to maximum at pH 9.0): 10% |
| OC[C@@H](O)[C@@H](O)[C@H](O)[C@@H](O)CO [D-Sorbitol] | 22 | 5 |  |
| OC[C@@H](O)[C@@H](O)[C@H](O)[C@H](O)CO [D-Mannitol] | 100 | 100 |  |
